Laboratory results taken from the NIST ThermoML archive (doi:10.1021/je200721d).

Experiment: xn = mol fraction of the nth substance listed
Conditions: Liquid, Vibrating tube method

CCCCCCCCCC [decane] + CCCCCC
Conditions | mass density [kg/m3]
313.18 K, 22000 kPa, x2 = 0.7524 | 687.87
313.18 K, 23000 kPa, x2 = 0.0456 | 730.42
313.18 K, 23000 kPa, x2 = 0.7524 | 688.65
313.18 K, 24000 kPa, x2 = 0.0456 | 731.08
313.18 K, 24000 kPa, x2 = 0.7524 | 689.4
313.18 K, 25000 kPa, x2 = 0.0456 | 731.73
313.18 K, 25000 kPa, x2 = 0.7524 | 690.14
313.21 K, 1000 kPa, x2 = 0.4968 | 688.23
313.21 K, 2000 kPa, x2 = 0.4968 | 689.24
313.21 K, 3000 kPa, x2 = 0.4968 | 690.26
313.21 K, 4000 kPa, x2 = 0.4968 | 691.19
313.21 K, 5000 kPa, x2 = 0.4968 | 692.15
313.21 K, 6000 kPa, x2 = 0.4968 | 693.12
313.21 K, 7000 kPa, x2 = 0.4968 | 694.03
313.21 K, 8000 kPa, x2 = 0.4968 | 694.95
313.21 K, 9000 kPa, x2 = 0.4968 | 695.84
313.21 K, 10000 kPa, x2 = 0.4968 | 696.74
313.21 K, 10990 kPa, x2 = 0.4968 | 697.6
313.21 K, 12000 kPa, x2 = 0.4968 | 698.47
313.21 K, 13000 kPa, x2 = 0.4968 | 699.32
313.21 K, 14000 kPa, x2 = 0.4968 | 700.16
313.21 K, 15000 kPa, x2 = 0.4968 | 700.95
313.21 K, 16000 kPa, x2 = 0.4968 | 701.76
313.21 K, 17000 kPa, x2 = 0.4968 | 702.55
313.21 K, 18000 kPa, x2 = 0.4968 | 703.34
313.21 K, 19000 kPa, x2 = 0.4968 | 704.08
313.21 K, 20000 kPa, x2 = 0.4968 | 704.83
313.21 K, 21000 kPa, x2 = 0.4968 | 705.58
313.21 K, 22000 kPa, x2 = 0.4968 | 706.34
313.21 K, 23000 kPa, x2 = 0.4968 | 707.05
313.21 K, 24000 kPa, x2 = 0.4968 | 707.76
313.21 K, 25000 kPa, x2 = 0.4968 | 708.45
322.99 K, 1000 kPa, x2 = 0.8991 | 645.29
322.99 K, 2000 kPa, x2 = 0.8991 | 646.4
322.99 K, 3000 kPa, x2 = 0.8991 | 647.52
322.99 K, 4000 kPa, x2 = 0.8991 | 648.64
322.99 K, 5000 kPa, x2 = 0.8991 | 649.64
322.99 K, 6000 kPa, x2 = 0.8991 | 650.89
322.99 K, 7000 kPa, x2 = 0.8991 | 652.02
322.99 K, 8000 kPa, x2 = 0.8991 | 653.14
322.99 K, 9000 kPa, x2 = 0.8991 | 654.27
322.99 K, 10000 kPa, x2 = 0.8991 | 655.38
322.99 K, 11000 kPa, x2 = 0.8991 | 656.46
322.99 K, 12000 kPa, x2 = 0.8991 | 657.57
322.99 K, 13000 kPa, x2 = 0.8991 | 658.64
322.99 K, 14000 kPa, x2 = 0.8991 | 659.7
322.99 K, 15000 kPa, x2 = 0.8991 | 660.74
322.99 K, 16000 kPa, x2 = 0.8991 | 661.75
322.99 K, 17000 kPa, x2 = 0.8991 | 662.76
322.99 K, 18000 kPa, x2 = 0.8991 | 663.71
322.99 K, 19000 kPa, x2 = 0.8991 | 664.67
322.99 K, 20000 kPa, x2 = 0.8991 | 665.59
322.99 K, 21000 kPa, x2 = 0.8991 | 666.49
322.99 K, 22000 kPa, x2 = 0.8991 | 667.35
322.99 K, 23000 kPa, x2 = 0.8991 | 668.19
322.99 K, 24000 kPa, x2 = 0.8991 | 669.02
322.99 K, 25000 kPa, x2 = 0.8991 | 669.89
323.14 K, 1000 kPa, x2 = 0.0456 | 705.56
323.14 K, 1000 kPa, x2 = 0.2185 | 697.1
323.14 K, 1000 kPa, x2 = 0.4968 | 679.98
323.14 K, 2000 kPa, x2 = 0.0456 | 706.52
323.14 K, 2000 kPa, x2 = 0.2185 | 698.02
323.14 K, 2000 kPa, x2 = 0.4968 | 681.03
323.14 K, 3000 kPa, x2 = 0.0456 | 707.47
323.14 K, 3000 kPa, x2 = 0.2185 | 698.97
323.14 K, 3000 kPa, x2 = 0.4968 | 682.14
323.14 K, 4000 kPa, x2 = 0.0456 | 708.4
323.14 K, 4000 kPa, x2 = 0.2185 | 699.88
323.14 K, 4000 kPa, x2 = 0.4968 | 683.21
323.14 K, 5000 kPa, x2 = 0.0456 | 709.32
323.14 K, 5000 kPa, x2 = 0.2185 | 700.82
323.14 K, 5000 kPa, x2 = 0.4968 | 684.24
323.14 K, 6000 kPa, x2 = 0.0456 | 710.22
323.14 K, 6000 kPa, x2 = 0.2185 | 701.75
323.14 K, 6000 kPa, x2 = 0.4968 | 685.27
323.14 K, 7000 kPa, x2 = 0.0456 | 711.11
323.14 K, 7000 kPa, x2 = 0.2185 | 702.67
323.14 K, 7000 kPa, x2 = 0.4968 | 686.28
323.14 K, 8000 kPa, x2 = 0.0456 | 711.99
323.14 K, 8000 kPa, x2 = 0.2185 | 703.58
323.14 K, 8000 kPa, x2 = 0.4968 | 687.29
323.14 K, 9000 kPa, x2 = 0.0456 | 712.86
323.14 K, 9000 kPa, x2 = 0.2185 | 704.45
323.14 K, 9000 kPa, x2 = 0.4968 | 688.27
323.14 K, 10000 kPa, x2 = 0.0456 | 713.72
323.14 K, 10000 kPa, x2 = 0.2185 | 705.32
323.14 K, 10000 kPa, x2 = 0.4968 | 689.22
323.14 K, 10990 kPa, x2 = 0.0456 | 714.56
323.14 K, 10990 kPa, x2 = 0.2185 | 706.19
323.14 K, 10990 kPa, x2 = 0.4968 | 690.14
323.14 K, 12000 kPa, x2 = 0.0456 | 715.39
323.14 K, 12000 kPa, x2 = 0.2185 | 707.05
323.14 K, 12000 kPa, x2 = 0.4968 | 691.07
323.14 K, 13000 kPa, x2 = 0.0456 | 716.21
